Assay results published in patent US20130143244A1, “SOX9 AS A MARKER FOR AGGRESSIVE CANCER” (ADMINISTRATORS OF THE TULANE EDUCATIONAL FUND, priority 2010, published 2013).
“Also recorded” adds a separate entry of the source.

Experiments:
Type in all cases: cell-based, human
MDA-MB-231 cells [1] = experiment: MTT cytotoxicity assay; settings: for growth of MDA-MB-231 cells relative to control (cell viability by MTT): serum starved, increasing drug concentrations (TSA 50-500 nM, LMB 0.5-10 ng/ml), 48 h; for cell death: serum starved MDA-MB-231 cells, increasing drug concentrations
Method: MTT cytotoxicity assay: MDA-MB-231 or MCF7 cells were plated onto 96 well plates at a density of 2.5×10^3 cells/well. Cells were allowed to attach overnight and serum starved for the next 24 h. Following starvation, cells were treated with increasing concentration of Trichostatin A (50-500 nM) or Leptomycin B (0.5-10 ng/ml) and allowed to grow for next 24 h. At the end of 24 h drug treatment, media was supplemented with an equal volume of media with 20% FBS. An MTT assay was used to determine cell viability after exposure to test compounds for 48 h, including the 24 h of incubation with 10% FBS. Briefly, 10 μl of MTT reagent (5 mg/ml in PBS) was added to each well, the plate was incubated for 2-4 h to allow for the formation of formazan crystals, the media was aspirated from all wells and crystals were dissolved with 150 μl DMSO. The optical densities were measured at 540 nm on a BioTek uQuant microplate spectrophotometer (BioTek Instruments, Inc., Winooski, Vt.) and the percent of surviving cells was calculated with respect to control or untreated cells. For the modified MTT assay, the classical MTT reagent was replaced with WST-8, which produces a water soluble formazan dye upon bioreduction. For this assay, at the end of drug treatment, cells were incubated with 10 μl of WST-8 per 100 μl media/per well for 2-3 h. O.D. at 450 nm was measured to determine cell viability in each well.

[2] = test system: SOX9 localization in MDA-MB-231 cells; experiment: Immunofluorescence microscopy of SOX9 localization; settings: serum-deprived MDA-MB-231 cells, TSA 500 nM or LMB 5 ng/mL for 4 h, then 10% FBS
Method: Cells were grown on sterile glass coverslips in 6 well plates to 30%-40% confluence in their respective media, serum starved for the next 24 h treated with 1 nM all trans retinoic acid, 500 nM TSA or 5 ng/mL Leptomycin B for 4 h and then with 10% FBS for 2-3 h. Coverslips were washed three times in PBS and fixed in 4% paraformaldehyde for 30 minutes. After washing the coverslips again with PBS three times, they were blocked with 10% whole goat serum (Santa Cruz Biotechnology, Inc., Santa Cruz, Calif.) for thirty minutes. Cells were stained with anti-SOX9 (1:1,000 dil) antibody or anti-DDK tag antibody (OriGene Technologies, Inc., Rockville, Md.) and visualized using alexa 488-conjugated or 594-conjugated secondary (1:500 dilution) antibody (Molecular Probes®, Invitrogen Corp., Carlsbad, Calif.) as described previously (Chakravarty et al., Exp Biol Med (Maywood), 234:372-86 (2009)). For analysis, cells were visualized with a Nikon N300 microscope (Nikon Instruments Inc., Melville, N.Y.). Filter sets for FITC and DAPI were used to capture images that were then analyzed with Elements software. To establish that response to growth arrest signals was dependent on SOX9's cellular localization, both cell lines were also cultured on coverslips, serum starved for 24 h, and subsequently exposed to 10% FBS and stained with SOX9 antibody as described above.

[3] = test system: p21, SOX9 and acetylated SOX9 in MDA-MB-231 cells; experiment: Immunoblot and immunoprecipitation analysis of p21, SOX9 and acetylated SOX9; settings: for p21 expression, arbitrary units normalized to actin level, change compared to cells grown in 10% FBS medium: TSA 500 nM or LMB 5 ng/ml for 4 h
Method: Asynchronous cell populations at a density of 50-60% in 6-well plates were serum deprived for 24 h, treated with TSA (500 nM), or Leptomycin B (5 ng/ml) for the next 4 h and then cultured in the presence of 10% FBS for 2-3 h before harvesting. Immunoblotting was performed by solubilizing cells in RIPA buffer, electrophoresing on 10% SDS-PAGE gels, incubating with primary antibodies for 1-2 h at room temperature, and detecting primary antibodies using HRP-conjugated secondary antibodies (1:30,000 dilution, Santa Cruz Biotechnology Inc.) and Amersham® ECU® (GE Healthcare Bio-Sciences Corp., Piscataway, N.J.) as described in Wang et al., Clin Cancer Res., 12:4755-65 (2006). Western blots were quantified by calculating an integrated density value (IDV) for each band using Bio-Rad's Gel Doc™ system and normalizing to the IDV of actin. For immunoprecipitation, total protein lysates were centrifuged at 14,000×g for 15 minutes at 4° C. Supernatants were then transferred to fresh centrifuge tubes and precleared with 50 μl of protein A Sepharose™ bead slurry (50%) per 1 ml of cell lysate. Incubation was continued at 4° C. for 30 minutes on a rocker or orbital shaker. Protein A beads were then collected by centrifugation at 14,000×g at 4° C. for 5 minutes. Protein concentration of the saved supernatant was determined after removing the beads. Approximately 500 μg to 1 mg of protein from each sample was transferred to fresh centrifuge tubes and diluted to 1 ml with ice cold PBS to reduce the concentration of the detergents in the buffer. The diluted lysates were incubated with 2 μg/mg protein anti-SOX9 antibody and rotated overnight at 4° C. Immuno complexes were captured with slurry of protein A-Sepharose™ CL-4B (Sigma) pre-washed with BSA through rotations for 1 h at 4° C. and washed three times with ice-cold modified RIPA buffer (Tris-HCl: 50 mM, pH 7.4, NP-40:1%, Na-deoxycholate: 0.25%, NaCl: 150 mM, EDTA: 1 mM, PMSF: 1 mM, NaF: 1 mM). Washed Sepharose™ beads were resuspended in 60 μl RIPA buffer with SDS dye and resolved on 10% SDS-PAGE gels. Blotted proteins were immunoprobed with antilysine antibody to detect the levels of acetylated SOX9.

MDA-MB-231 cells [4] = experiment: Gene expression profiling using RT2 Profiler PCR Array; settings: MDA-MB-231 cells serum starved, TSA for 4 h, then FBS
Method: MDA-MB-231 cells with or without TSA treatment were harvested for total RNA using Trizol (Invitrogen) and reverse transcribed using RT^2 first strand kit from SABiosciences (Frederick, Md.). Real-Time PCR was performed according to the RT^2 Profiler PCR Array User manual (SABiosciences) using SYBR Green PCR Master Mix for the CFX96™ Real-Time PCR detection system from Bio-Rad (Bio-Rad Laboratories, Inc., Hercules, Calif.). The PAHS-090C PCR Array was repeated twice for each cDNA sample and the data were analyzed using Excel-based PCR Array Data Analysis Templates from SABiosciences.
The average Ct value of each gene obtained from duplicate experiments was used to calculate its expression value, which was expressed as 2−ΔCt (ΔCt=CtGOI−Ave CtHKG; GOI=gene of interest, HKG=housekeeping gene, Ave CtHKG=average Ct value of five housekeeping genes).

[5] = test system: beta catenin reporter (TOP-flash/FOP-flash) in MDA-MB-231 cells; experiment: TOP-flash / FOP-flash beta catenin reporter transfection experiment
Method: The Col2a1 reporter gene (Lefebvre et al., Mol Cell Biol, 17:2336-46 (1997)) was kindly provided by Prof. Benoit deCrombrugghe's laboratory. The beta catenin reporter set containing the plasmids TOP-flash and FOP-flash were made available by Prof. Randall Moon's laboratory.
For transfection, MDA-MB-231 cells were cultivated at 2.5×10^5 cells per well in 6-well plates. Twenty four hours later, transfection was performed using lipofectamine 2000 (Invitrogen) according the manufacturer's instruction. Cells in 6-well plates were transfected with 0.250 μg DNA of Col2a1 reporter or […] DNA of Top-flash or Fop-flash reporters, 10 ng of Renilla luciferase and 1.0 μg of wild type DDK tagged SOX9 per well. Top-flash or Fop-flash reporter transfected wells were treated with 15-ng/ml recombinant wnt3a protein (R&D Systems, Inc., Minneapolis, Minn.) after 24 h of transfection. All transfected cells were lysed directly in Promega's Dual Luciferase lysis buffer and collected with a cell scrape. Luciferase measurement was performed using a Optocomp I luminometer (MGM Instruments, Inc., Hamden, Conn.). Cellular localization of wild type DDK tagged SOX9 was detected using immunofluorescence as described above.

Molecule | growth of MDA-MB-231 cells relative to control (cell viability by MTT) (MDA-MB-231 cells [1]) | cell death (MDA-MB-231 cells [1]) | nuclear localization of SOX9 [2] | acetylation of endogenous SOX9 protein ([3]; TSA 500 nM for 4 h, immunoprecipitation and anti acetylated lysine blot) | endogenous SOX9 protein expression, arbitrary units normalized to actin level, increase ([3]; TSA 500 nM for 4 h, western blot) [fold] | p21 expression, arbitrary units normalized to actin level, change compared to cells grown in 10% FBS medium ([3]; western blot) [fold] | gene expression profile with versus without TSA treatment (MDA-MB-231 cells [4]) | induction of TOP-flash reporter, wnt3a treated versus untreated cells ([5]; MDA-MB-231 cells transfected with wild type (nuclear) SOX9, 15 ng/ml recombinant wnt3a) [fold] | FOP-FLASH reporter activity, wnt3a treated versus untreated cells ([5]; MDA-MB-231 cells, mutated LEF-1/TCF-binding sites control vector)
CC(/C=C/C(=O)NO)=C\[C@@H](C)C(=O)c1ccc(N(C)C)cc1 [TSA, [R-(E,E)]-7-[4-(Dimethylamino)phenyl]-Nhydroxy-4,6-dimethyl-7-oxo-2,4-heptadienamide] | decrease in proliferative potential; also recorded: markedly heightened sensitivity to growth inhibition | dose dependent increase in cell death | marked increase in nuclear SOX9 staining; also recorded: enhanced nuclear localization of SOX9 | enhanced acetylation of endogenous SOX9 protein | 1.2 | 1.3 | several fold higher expression of genes involved in growth, development and differentiation and downregulation of migration, motility and cytoskeletal genes | – | –
CCC(=C/[C@H](C)C/C=C/C(C)=C/[C@@H](C)C(=O)[C@@H](C)[C@H](O)[C@@H](C)C/C(C)=C/C(=O)O)/C=C/[C@@H]1OC(=O)C=C[C@@H]1C [LMB, leptomycin B] | unaffected | unable to retain SOX9 in the nucleus or induce cell death; also recorded: unaffected | unable to retain SOX9 in the nucleus; also recorded: unaffected | – | – | 0.08 | – | – | –
wnt3a: recombinant wnt3a protein (R&D Systems) used to activate wnt signaling (protein, UniProt P56704 19-352, looked up) Protein Wnt-3a: SYPIWWSLAVGPQYSSLGSQPILCASIPGLVPKQLRFCRNYVEIMPSVAEGIKIGIQECQHQFRGRRWNCTTVHDSLAIFGPVLDKATRESAFVHAIASAGVAFAVTRSCAEGTAAICGCSSRHQGSPGKGWKWGGCSEDIEFGGMVSREFADARENRPDARSAMNRHNNEAGRQAIASHMHLKCKCHGLSGSCEVKTCWWSQPDFRAIGDFLKDKYDSASEMVVEKHRESRGWVETLRPRYTYFKVPTERDLVYYEASPNFCEPNPETGSFGTRDRTCNVSSHGIDGCDLLCCGRGHNARAERRREKCRCVFHWCCYVSCQECTRVYDVHTCK | – | – | – | – | – | – | – | 22 | unchanged
